Tested on: cellular uptake of PS-LNPs and LNPs
Assay: Cellular uptake inhibition experiments
Format: cell-based
Conditions: at least 50% inhibition considered significant
From the text: To elucidate mechanisms of cellular uptake and intracellular processing in the presence and absence of PS, we conducted a series of cellular uptake inhibition experiments. An arbitrary threshold of at least 50% inhibition was considered to be significant.

Row | Compound | inhibition of uptake of PS-LNPs | inhibition of uptake of LNPs (without PS)
1 | CN(C)CCCN1c2ccccc2Sc2ccc(Cl)cc21 [Chlorpromazine] | specifically inhibited | 
2 | COc1cc2c(c(OC)c1OC)-c1ccc(OC)c(=O)cc1[C@@H](NC(C)=O)CC2 [Colchicine] | specifically inhibited | specifically inhibited
3 | O=C(N/N=C/c1ccc(O)c(O)c1)c1cc2ccccc2cc1O [Dynasore] | specifically inhibited | specifically inhibited

— patent EP4226916A1, “LIPID NANOPARTICLE COMPRISING PHOSPHATIDYLSERINE” (Universität Basel, priority 2022, dated 2023)
